Data taken from patent US11628186B2, “Method and composition for the reduction of viral replication, duration and spread of the COVID-19 and the flu” (priority 2017, dated 2023).

What was measured:
[1] = Rat studies of irritation or toxicity; assay type: in vivo; conditions: 100× concentrations of the 5 mM sodium pyruvate
Text: Ethane and alcohol are lung irritants.

[2] = system: patients with or without lung damage; experiment: Controlled inhalation studies of 20 mM sodium pyruvate in saline; assay type: in vivo, human
Procedure: Sodium chloride is mainly used as nasal or lung moisturizer. […] They produce no change to FEV-1 or SaO2 measurements. It must be noted that there is a difference between people who have transient hypoxemia vs. one that has permanent hypoxemia. The patients respond differently to the inhalation of 20 mM sodium pyruvate in saline by itself without calcium, phosphate and magnesium. Sodium pyruvate formulations both given orally or by inhalation will increase SaO2 levels in people without lung injury to the alveoli structure especially the mitochondria that can synthesis the phospholipids needed for oxygen exchange and uptake. Transient hypoxemia is a self-correcting effect. It occurs in over exercising, mountain climbing etc. […] In patients with infections, i.e. CF and allergic Rhinitis, Nitric Oxide increase by over 400% over base line measurements with the use of the sodium pyruvate, calcium, phosphate and magnesium formula, needed to fight infections and lung cancer (see table IV).

[3] = system: COPD patients with Allergic Rhinitis; experiment: 20 mM sodium pyruvate nasal sprays over three months (Table VI); assay type: in vivo, human; conditions: 20 mM nasal spray

SMILES: CC(=O)C(=O)[O-].[Na+] [Sodium, sodium pyruvate]
- irritation or toxicity [1]: not to have any irritation or toxicity
- SaO2 levels ([2]; Patients with lung damage, like in smokers, 20 mM without calcium, phosphate and magnesium): did not show an increase SaO2 levels
- increase of SaO2, average ([2]; patients with no lung injuries or disease, after exercising, 20 mM in saline): 3%
- Overall Rating 1-10 [3]: 7
- Percentage decrease in COPD symptoms [3]: 18.0%
- Percentage decrease in us of RX medications [3]: 20%
- Rating 1-10 Congestion and lung tightness [3]: 5
- Rating 1-10 decrease in shortness of breath [3]: 6.0
- Relief of coughing. Percentage Daily decrease [3]: 15%
